Measured values published in US6762152B1, “Substituted benzoyl ketones, methods for producing them and their use as herbicides” (Bayer Aktiengesellschaft, priority 1999, dated 2004).
Like-named read-outs stand apart in the source and are kept apart here.

Key:
[1] = logP by HPLC, reverse-phase column (C 18), acidic range; assay type: physicochemical
Experimental: Temperature: 43° C. (a) Mobile phases for the determination in the acidic range: 0.1% aqueous phosphoric acid, acetonitrile; linear gradient from 10% acetonitrile to 90% acetonitrile—the corresponding data in Table 1 are labelled^a). […] Temperature: 43° C. (a) Mobile phases for the determination in the acidic range: 0.1% aqueous phosphoric acid, acetonitrile; linear gradient from 10% acetonitrile to 90% acetonitrile—the corresponding data in Table 2 are labelled^a).

[2] = test system: weeds; assay: Pre-emergence test, weeds; assay type: in vivo; details: soil sprayed, rated after three weeks
Experimental: Pre-emergence Test Solvent: 5 parts by weight of acetone Emulsifier: 1 part by weight of alkylaryl polyglycol ether To produce a suitable preparation of active compound, 1 part by weight of active compound is mixed with the stated amount of solvent, the stated amount of emulsifier is added and the concentrate is diluted with water to the desired concentration. Seeds of the test plants are sown in normal soil. After about 24 hours, the soil is sprayed with the preparation of active compound such that the particuiar amount of active compound desired is applied per unit area. The concentration of the spray liquor is chosen so that the particular amount of active compound desired is applied in 1000 litres of water per hectare. After three weeks, the degree of damage to the plants is rated in % damage in comparison to the development of the untreated control. The figures denote: 0%=no effect (like untreated control) 100%=total destruction

[3] = test system: crop plants, such as, for example, maize; assay: Pre-emergence test, crop plant tolerance; assay type: in vivo; details: rated after three weeks
From the text: (§1) Solvent: 5 parts by weight of acetone
(§2) Emulsifier: 1 part by weight of alkylaryl polyglycol ether
Seeds of the test plants are sown in normal soil.
(§3) After three weeks, the degree of damage to the plants is rated in % damage in comparison to the development of the untreated control.

[4] = test system: weeds; assay: Post-emergence test, weeds; assay type: in vivo; details: plants of 5 to 15 cm sprayed, rated after three weeks
Experimental: as §1, §2
To produce a suitable preparation of active compound, 1 part by weight of active compound is mixed with the stated amount of solvent, the stated amount of emulsifier is added and the concentrate is diluted with water to the desired concentration.
Test plants of a height of 5 to 15 cm are sprayed with the preparation of active compound such that the particular amounts of active compound desired are applied per unit area. The concentration of the spray liquor is chosen so that the particular amounts of active compound are applied in 1000 l of water/ha.
as §3
0%=no effect (like untreated control)

[5] = a) acidic range: 0.1% aqueous phosphoric acid, acetonitrile, 43° C., Table 1

logP [1]	SMILES	activity against weeds [2]	tolerated by crop plants [3]	activity against weeds [4]	logP [1, 5]	further results
–	CCOc1nn(Cc2cc(C(F)(F)F)ccc2C(=O)C(C#N)C(=O)C2CC2)c(=O)n1C1CC1 (stereo not drawn) [Example 1, 3-cyclopropyl-2-{2-[4-(cyclopropyl-3-ethoxy-5-oxo-4,5-dihydro-1H-1,2,4-triazol-1-yl)-methyl]4-trifluoromethyl-benzoyl}-3-oxo-propanenitrile]	strong activity	tolerated well	strong activity	–	chromatographic logP ([1]; reverse-phase HPLC column (C 18), determined at pH=2): 3.35
–	CSc1nn(Cc2cc(C(F)(F)F)ccc2C(=O)C(C#N)C(=O)C2CC2)c(=O)n1C1CC1 (stereo not drawn) [Example 2]	strong activity	tolerated well	strong activity	(IA) logP = 2.92^a)	–
–	CCOc1nn(Cc2cc(C(F)(F)F)ccc2C(=O)C(C#N)C(=O)C2CC2)c(=O)n1C (stereo not drawn) [Example 3]	strong activity	tolerated well	strong activity	(IA) logP = 3.03^a)	–
–	CSc1nn(Cc2cc(Br)ccc2C(=O)C(C#N)C(=O)C2CC2)c(=O)n1C (stereo not drawn) [Example 5]	strong activity	tolerated well	strong activity	(IA) logP = 2.83^a)	–
–	CCOc1nn(Cc2cc(Br)ccc2C(=O)C(C#N)C(=O)C2CC2)c(=O)n1C (stereo not drawn) [Example 6]	strong activity	tolerated well	strong activity	(IA) logP = 2.94^a)	–
(IA) logP = 2.28^a)	CN(C)c1nn(Cc2cc(F)ccc2C(=O)C(C#N)C(=O)C2CC2)c(=O)n1C (stereo not drawn) [Example 7]	–	–	–	–	–
(IA) logP = 2.56^a)	COc1nn(Cc2cc(F)ccc2C(=O)C(C#N)C(=O)C2CC2)c(=O)n1C1CC1 (stereo not drawn) [Example 8]	–	–	–	–	–
(IA) logP = 1.74^a)	CSc1nn(Cc2cc(S(C)(=O)=O)ccc2C(=O)C(C#N)C(=O)C2CC2)c(=O)n1C (stereo not drawn) [Example 9]	–	–	–	–	–
(IA) logP = 2.35^a)	Cc1nn(Cc2cc(C(F)(F)F)ccc2C(=O)C(C#N)C(=O)C2CC2)c(=O)n1C (stereo not drawn) [Example 10]	–	–	–	–	–
–	CCOc1nn(Cc2cc(C(F)(F)F)ccc2C(=O)O)c(=O)n1C [III-2, 5-ethoxy-4-methyl-2-(2-carboxy-5-trifluoromethyl-benzyl)-2,4-dihydro-3H-1,2,4-triazol-3-one]	–	–	–	–	chromatographic logP ([1]; reverse-phase HPLC column (C 18); a) acidic range, starting material of formula (III)): 2.18
–	Cn1c(C(F)(F)F)nn(Cc2c(Cl)ccc(C(=O)O)c2Cl)c1=O [III-3, 4-methyl-5-trifluoromethyl-2-(2,6-dichloro-3-carboxy-benzyl)-2,4-dihydro-3H-1,2,4-triazol-3-one]	–	–	–	–	melting point: 207 °C
–	CCOn1c(CC)nn(Cc2cc(C(F)(F)F)ccc2C(=O)c2c(C(=O)OC)noc2C2CC2)c1=O [IV-1, (5-cyclopropyl-3-methoxycarbonyl-isoxazol-4-yl)-[2-(4-ethoxy-3-ethyl-5-oxo-4,5-dihydro-[1,2,4]-triazol-1-yl-methyl)-4-trifluoromethyl-phenyl]-methanone]	–	–	–	–	chromatographic logP ([1]; reverse-phase HPLC column (C 18), determined at pH=2.3, starting material of formula (IV)): 3.56
